One data set is described as follows: In vivo mouse PK. To be noted: plasma, mouse (female Balb/C), 5 mg kg^–1. The method, then:
(§1) Mice (female Balb/C) were dosed po or iv with 28c (5 mg kg^–1) in 10% DMSO and 5% Tween 20 in saline. After administration, the mice were sacrificed at 5, 15, and 30 min and 1, 2, 4, 6, and 24 h. Blood was removed by cardiac puncture and centrifuged to obtain plasma samples. The plasma samples (100 μL) were added to the analytical internal standard (IS; olomoucine), followed by protein precipitation with 300 μL of methanol. Following centrifugation (1200g, 30 min, 4 °C), the resulting supernatants were analyzed for 28c levels by LC/MS using a reversed-phase X-Bridge C18 (Waters, 50 × 2.1 mm) analytical column and positive ion mode ESI MRM on a Waters 2795 liquid chromatography system coupled to a Quattro Ultima triple-quadrupole mass spectrometer (Waters).
as §1, with “40f” for “28c”, “The plasma samples (100 μL) were added to the analytical internal standard (IS; olomoucine), followed by protein precipitation with 300 μL of methanol.” left out, “Polar RP (Phenomenex,” for “X-Bridge C18 (Waters,”, “2” for “2.1”

A further data set deals with AMPK (hum). Nature of the data set: Kinase selectivity profiling. The data set is classed as biochemical, human. To be noted: 1 µM; 50-kinase panel (MRC-PPU Express Screen). From the text:
Compound 28c was profiled against a panel of 110 kinases at the International Centre for Protein Kinase Profiling, Division of Signal Transduction Therapy, University of Dundee. Compound 40f was profiled against a panel of 50 kinases (MRC-PPU Express Screen) also at the International Centre for Protein Kinase Profiling.

The target of the next data set is Aurora B (Homo sapiens, UniProt Q96GD4). Nature of the data set: Cellular inhibition of histone H3 phosphorylation at S10 (Aurora-B biomarker) in HCT116 cells. In kind it is cell-based.

“And” between values parts separate entries of the source, which are not always exact repeats. Equal values may be shown once.

Broadly, the clearance is the volume of plasma or blood freed of the substance per unit of time. Low values mean a low capacity for elimination, high ones a high capacity for elimination.

Sequence of Aurora B (Q96GD4 whole entry): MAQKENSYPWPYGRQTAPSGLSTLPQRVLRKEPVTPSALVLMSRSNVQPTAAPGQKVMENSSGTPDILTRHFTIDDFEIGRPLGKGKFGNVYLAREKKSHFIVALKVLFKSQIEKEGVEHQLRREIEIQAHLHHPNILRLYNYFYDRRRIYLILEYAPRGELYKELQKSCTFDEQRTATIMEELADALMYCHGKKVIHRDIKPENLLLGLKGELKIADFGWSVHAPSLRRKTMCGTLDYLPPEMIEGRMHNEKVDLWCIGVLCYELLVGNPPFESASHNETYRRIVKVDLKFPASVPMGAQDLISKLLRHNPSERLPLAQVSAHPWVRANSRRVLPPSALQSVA
Sequence of Aurora B (Q9NQS7 whole entry partner): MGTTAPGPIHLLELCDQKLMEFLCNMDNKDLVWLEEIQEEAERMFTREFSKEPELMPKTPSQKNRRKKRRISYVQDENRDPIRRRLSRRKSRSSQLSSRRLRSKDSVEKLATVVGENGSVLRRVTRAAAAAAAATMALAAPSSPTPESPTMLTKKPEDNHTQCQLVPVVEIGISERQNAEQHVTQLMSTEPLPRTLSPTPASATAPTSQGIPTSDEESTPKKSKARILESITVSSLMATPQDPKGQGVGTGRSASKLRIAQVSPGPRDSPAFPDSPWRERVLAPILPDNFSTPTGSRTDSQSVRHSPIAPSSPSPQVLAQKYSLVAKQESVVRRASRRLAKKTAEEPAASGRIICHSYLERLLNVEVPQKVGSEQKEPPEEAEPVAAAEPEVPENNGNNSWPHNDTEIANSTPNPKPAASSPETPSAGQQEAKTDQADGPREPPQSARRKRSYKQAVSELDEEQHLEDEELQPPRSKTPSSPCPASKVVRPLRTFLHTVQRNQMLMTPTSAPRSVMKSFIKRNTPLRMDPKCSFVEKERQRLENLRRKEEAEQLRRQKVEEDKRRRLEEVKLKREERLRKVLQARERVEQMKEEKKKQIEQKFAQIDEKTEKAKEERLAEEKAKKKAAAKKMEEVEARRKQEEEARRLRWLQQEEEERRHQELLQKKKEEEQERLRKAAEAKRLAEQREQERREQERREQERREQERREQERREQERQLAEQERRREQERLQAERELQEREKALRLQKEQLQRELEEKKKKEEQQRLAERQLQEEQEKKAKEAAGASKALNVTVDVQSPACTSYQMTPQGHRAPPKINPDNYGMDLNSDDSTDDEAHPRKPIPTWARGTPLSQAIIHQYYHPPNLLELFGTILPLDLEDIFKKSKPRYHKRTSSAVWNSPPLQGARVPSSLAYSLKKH
Sequence of Aurora B (O15392 whole entry partner): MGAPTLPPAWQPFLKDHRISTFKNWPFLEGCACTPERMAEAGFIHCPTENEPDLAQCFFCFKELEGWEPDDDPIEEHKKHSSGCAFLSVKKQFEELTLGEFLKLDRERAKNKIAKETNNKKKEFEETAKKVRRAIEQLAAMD
Sequence of Aurora B (Q53HL2 whole entry partner): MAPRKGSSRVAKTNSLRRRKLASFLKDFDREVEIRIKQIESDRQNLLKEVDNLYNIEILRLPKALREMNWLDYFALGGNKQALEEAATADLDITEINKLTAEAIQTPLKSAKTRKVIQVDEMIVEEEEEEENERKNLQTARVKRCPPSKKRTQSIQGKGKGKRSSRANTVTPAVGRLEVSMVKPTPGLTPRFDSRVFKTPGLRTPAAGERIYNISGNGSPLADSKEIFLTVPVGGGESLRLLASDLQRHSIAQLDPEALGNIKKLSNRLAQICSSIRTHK

Consider `Cc1nn(C)cc1-c1nc2c(Oc3ccc(C(=O)Nc4ccccc4)cc3)c(Cl)cnc2[nH]1` [compound 28c, 4-((6-Chloro-2-(1,3-dimethyl-1H-pyrazol-4-yl)-3H-imidazo[4,5-b]pyridin-7-yl)oxy)-N-phenylbenzamide], for which the clearance in “In vivo mouse PK” was 0.883 mL/min and 44.2 mL/min/kg. Moreover, the Vd in “In vivo mouse PK” (read-out: volume of distribution) is 0.036 L.

`Cc1nn(C)cc1-c1nc2c(Oc3ccc(C(=O)NC4CCC4)cc3)c(Cl)cnc2[nH]1` [compound 40f, 4-((6-Chloro-2-(1,3-dimethyl-1H-pyrazol-4-yl)-3H-imidazo[4,5-b]pyridin-7-yl)oxy)-N-cyclobutylbenzamide]: the “% activity remaining, AMPK (hum)” value in the data set with AMPK (hum) is recorded as 85%. Besides, on Aurora B (1.5 μM), the “histone H3 phosphorylation” value is reported as “increase in histone H3 phosphorylation”. Also, the entries for the “inhibition of histone H3 phosphorylation at S10” value at Aurora B (25 μM) and on Aurora B (50 μM) were “partial inhibition” and “complete inhibition”, respectively.
